Laboratory results: patent US11859087B2, “Fluorescent dye, preparation method therefor, and application thereof” (SUZHOU BAIYUAN GENT CO., LTD., priority 2018, dated 2024)
Counter-ions that a name gives are not always drawn.

Assays:
[1] = Determination of the fluorescence spectrum of fluorescent dyes; format: physicochemical; conditions: for λem (max/nm): ethanol and water (50:50, v/v), 1.0×10^−6 mol/L, excitation at maximum absorption wavelength
Experimental: The fluorescence spectrum was measured using the maximum absorption wavelength in the measured near-infrared spectrum as the excitation wavelength of the fluorescence spectrum. The compounds prepared in Example 1 and Examples 4-6 were accurately weighed to prepare a solution of ethanol and water (50:50, v/v) at a concentration of 1.0×10^−6 mol/L. The emission spectrum of the solution was measured, and the result was shown in FIG. 1. In FIG. 1, 1 represents the intermediate prepared in Example 1, and 2-4 represent the compounds prepared in Examples 4-6, respectively.

[2] = Determination of fluorescence quantum yield of fluorescent dyes; format: physicochemical; conditions: 20° C., absolute ethanol, quinine sulfate as reference
Experimental: The fluorescence quantum yield of the fluorescent dyes was determined at 20° C., and quinine sulfate (Solvent: 0.1M H2SO4, Quantum yield: 0.56) was used as a reference compound, then the fluorescence quantum yield was calculated by measuring fluorescence integral intensities obtained from the dilute solutions of the fluorescent dyes and the reference compound under the same excitation conditions and the ultraviolet absorption value at this excitation wavelength. The product was dissolved in absolute ethanol.
The formula for calculating fluorescence quantum yield is as shown in equation (2):
[formula] wherein Φ represents quantum yield of the compound to be measured, the subscript R represents reference compound, I represents fluorescence integral intensity, A represents ultraviolet absorption value, and η represents solvent refractive index. Generally, the ultraviolet absorption values A and AR are less than 0.1.

[3] = Determination of the absorption spectrum of fluorescent dyes; format: physicochemical; conditions: 1.0×10^−5 mol/L in 50% by volume of ethanol
Source text: The compounds prepared in Example 1 and Examples 4-6 were accurately weighed to prepare a solution having a concentration of 1.0×10^−5 mol/L using 50% by volume of ethanol. In FIG. 2, 1 represents the intermediate prepared in Example 1, and 2-4 represent the compound prepared in Examples 4-6, respectively.

[4] = Determination of molar extinction coefficient by UV-visible absorption spectroscopy; format: physicochemical; conditions: A=εcl
Experimental: The molar extinction coefficient of the compound was determined by UV-visible absorption spectroscopy. The formula for calculating molar extinction coefficient is as shown in equation (1): A=εcl Equation (1), wherein A represents ultraviolet absorption value, ε represents molar extinction coefficient, c represents concentration of the compound, and l represents thickness of the quartz cell for detection.

[5] = reference compound, solvent 0.1M H2SO4; cited from earlier work

| Stokes shift (nm) [1] [nm] | λem (max/nm) [1] [nm] | Φ (%) [2] [%] | λabs (max/nm) [3] [nm] | ε × 10^4 (M^−1 cm^−1) [4] | Compound | Quantum yield [5] |
| --- | --- | --- | --- | --- | --- | --- |
| 34 | 829 | 89.86 | 790 | 9.0 × 10^4 M^−1 cm^−1 | CC1(C)C(/C=C/C2=C(NCc3cccc(C(=O)O)c3)C(=C/C=C3/N(/C=C/Br)c4ccccc4C3(C)C)/CCC2)=[N+](/C=C/Br)c2ccccc21 [Example 6] | – |
| – | – | – | – | – | C=C[C@H]1C[N@@]2CC[C@H]1C[C@H]2[C@H](O)c1ccnc2ccc(OC)cc12 [quinine sulfate] | 0.56 |
| 40 | 820 | 86.00 | 787 | 8.6 × 10^4 M^−1 cm^−1 | CC1(C)C(/C=C/C2=C(NCO)C(=C/C=C3/N(/C=C/Br)c4ccccc4C3(C)C)/CCC2)=[N+](/C=C/Br)c2ccccc21 [Example 5] | – |
| 38 | 815 | 84.99 | 785 | 8.5 × 10^4 M^−1 cm^−1 | CC1(C)C(/C=C/C2=C(NCC(=O)O)C(=C/C=C3/N(/C=C/Br)c4ccccc4C3(C)C)/CCC2)=[N+](/C=C/Br)c2ccccc21 [Example 4] | – |
